Patent US12139499B2, “Heteroaryl compounds for treating Huntington's disease” (PTC THERAPEUTICS, INC., priority 2018, dated 2024)

Test system: Endogenous Huntingtin Protein
Assay: Endogenous Huntingtin Protein Assay (ELISA-based MSD electrochemiluminescence)
Format: cell-based
Conditions: Table 1
Method in brief: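 Sandwich MSD electrochemiluminescence immunoassay. Capture used MW1 (expanded polyglutamine) or MAB2166 antibody coated at 1 μg/mL overnight at 4 °C. Samples were bound overnight at 4 °C, then a rabbit monoclonal detection antibody and SULFO-TAG anti-rabbit, each at 0.25 μg/mL, were applied for 1 h at room temperature.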

Molecule	IC50 [nM]
CC1CC(c2nc3ccc(-c4ccc5nn(C)cc5c4)cc3s2)=CCN1 (centres unmarked) [Compound 65, 6-(2-methyl-2H-indazol-5-yl)-2-(2-methyl-1,2,3,6-tetrahydropyridin-4-yl)-1,3-benzothiazole]	100 to 500
CN(c1nc2cnc(-c3ccc(-c4cn[nH]c4)cc3O)nc2s1)C1CC(C)(C)NC(C)(C)C1 [Compound 142, 2-{2-[methyl(2,2,6,6-tetramethylpiperidin-4-yl)amino][1,3]thiazolo[5,4-d]pyrimidin-5-yl}-5-(1H-pyrazol-4-yl)phenol]	100 to 500
CN(c1nc2cnc(-c3ccc4nn(C)cc4c3)cc2s1)C1CC2CCCC(C1)N2 (centres unmarked) [Compound 262, N-(9-azabicyclo[3.3.1]non-3-yl)-N-methyl-6-(2-methyl-2H-indazol-5-yl)[1,3]thiazolo[4,5-c]pyridin-2-amine]	≤ 100
CN1CC[C@@H]2CN(c3nc4nnc(-c5ccc(-c6cn[nH]c6)cc5O)cc4s3)[C@@H]2C1 [Compound 388, 2-{6-[(1S,6R)-3-methyl-3,8-diazabicyclo[4.2.0]octan-8-yl][1,3]thiazolo[4,5-c]pyridazin-3-yl}-5-(1H-pyrazol-4-yl)phenol]	100 to 500
Cc1cc(-c2ccc3nc(N(C)C4CCNC(C)(C)C4)sc3c2)cc2cn(C)nc12 (centres unmarked) [Compound 146, 6-(2,7-dimethyl-2H-indazol-5-yl)-N-(2,2-dimethylpiperidin-4-yl)-N-methyl-1,3-benzothiazol-2-amine]	100 to 500
CC1(C)C=C(c2cc3sc(-c4ccc(-c5cn[nH]c5)cc4O)nc3cn2)CC(C)(C)N1 [Compound 337, 5-(1H-pyrazol-4-yl)-2-[6-(2,2,6,6-tetramethyl-1,2,3,6-tetrahydropyridin-4-yl)[1,3]thiazolo[4,5-c]pyridin-2-yl]phenol]	500 to 1000
CN(c1ccc2nc(-c3ccc4nn(C)cc4c3)sc2c1)C1CCNCC1 [Compound 11, N-methyl-2-(2-methyl-2H-indazol-5-yl)-N-(piperidin-4-yl)-1,3-benzothiazol-6-amine]	1000 to 3000
Cc1cn2cc(-c3cc(F)c4nc(OC5CCNCC5)sc4c3)cc(C)c2n1 [Compound 319, 6-(2,8-dimethylimidazo[1,2-a]pyridin-6-yl)-4-fluoro-2-[(piperidin-4-yl)oxy]-1,3-benzothiazole]	≤ 100
COc1cc(-c2cc(C)c3nn(C)cc3c2)cc2sc(C3CCNCC3)nc12 [Compound 99, 6-(2,7-dimethyl-2H-indazol-5-yl)-4-methoxy-2-(piperidin-4-yl)-1,3-benzothiazole]	1000 to 3000
CN(c1nc2cnc(-c3cc(F)c4nn(C)cc4c3)nc2s1)C1CC2(C)CC[C@](C)(C1)N2 (stereo partly drawn) [Compound 289, N-[(1R)-1,5-dimethyl-8-azabicyclo[3.2.1]octan-3-yl]-5-(7-fluoro-2-methyl-2H-indazol-5-yl)-N-methyl[1,3]thiazolo[5,4-d]pyrimidin-2-amine]	≤ 100
Cc1cn2nc(-c3cc(F)c4nc(C5CCNCC5)sc4c3)cc(N)c2n1 [Compound 188, 6-[4-fluoro-2-(piperidin-4-yl)-1,3-benzothiazol-6-yl]-2-methylimidazo[1,2-b]pyridazin-8-amine]	≤ 100
Cc1cc(-c2cc3sc(N(C)C4CC(C)(C)NC(C)(C)C4)nc3nn2)cc2cn(C)nc12 [Compound 118, 3-(2,7-dimethyl-2H-indazol-5-yl)-N-methyl-N-(2,2,6,6-tetramethylpiperidin-4-yl)[1,3]thiazolo[4,5-c]pyridazin-6-amine]	100 to 500
Oc1cc(-c2cn[nH]c2)ccc1-c1cc2sc(NC3CCNC3)nc2nn1 (centres unmarked) [Compound 367, 5-(1H-pyrazol-4-yl)-2-{6-[(pyrrolidin-3-yl)amino][1,3]thiazolo[4,5-c]pyridazin-3-yl}phenol]	100 to 500
Cc1cn2nc(-c3cnc4nc(C5CCNCC5)sc4c3)cc(C)c2n1 [Compound 61, 6-(2,8-dimethylimidazo[1,2-b]pyridazin-6-yl)-2-(piperidin-4-yl)[1,3]thiazolo[4,5-b]pyridine]	≤ 100
Cc1cn2nc(-c3cc(F)c4nc(C5CCN[C@H](C)C5)sc4c3)ccc2n1 (stereo partly drawn) [Compound 144, 6-{4-fluoro-2-[(2R)-2-methylpiperidin-4-yl]-1,3-benzothiazol-6-yl}-2-methylimidazo[1,2-b]pyridazine]	≤ 100
Cc1cn2nc(-c3cc(F)c4nc(C5CCNCC5)sc4c3)cc(C#N)c2n1 [Compound 230, 6-[4-fluoro-2-(piperidin-4-yl)-1,3-benzothiazol-6-yl]-2-methylimidazo[1,2-b]pyridazine-8-carbonitrile]	≤ 100
COc1cc(-c2cc3sc(N(C)C4CC5CCCC(C4)N5)nc3cn2)cc2cn(C)nc12 (centres unmarked) [Compound 264, N-(9-azabicyclo[3.3.1]non-3-yl)-6-(7-methoxy-2-methyl-2H-indazol-5-yl)-N-methyl[1,3]thiazolo[4,5-c]pyridin-2-amine]	≤ 100
Cn1cc2cc(-c3nc4ccc(C5CCNCC5)cc4s3)ccc2n1 [Compound 5, 2-(2-methyl-2H-indazol-5-yl)-6-(piperidin-4-yl)-1,3-benzothiazole]	500 to 1000
Cc1cn2cc(-c3cc(F)c4nc(N(C)C5CC(C)(C)NC(C)(C)C5)sc4c3)cc(C)c2n1 [Compound 39, 6-(2,8-dimethylimidazo[1,2-a]pyridin-6-yl)-4-fluoro-N-methyl-N-(2,2,6,6-tetramethylpiperidin-4-yl)-1,3-benzothiazol-2-amine]	≤ 100
Cc1cn2cc(-c3ccc4nc(N(C)C5CC6(C)CCC(C)(C5)N6)sc4n3)cc(C#N)c2n1 [Compound 291, 6-(2-{[(1R,3s,5S)-1,5-dimethyl-8-azabicyclo[3.2.1]octan-3-yl](methyl)amino}[1,3]thiazolo[5,4-b]pyridin-5-yl)-2-methylimidazo[1,2-a]pyridine-8-carbonitrile]	≤ 100
CNC1CC(N(C)c2nc3nnc(-c4ccc(-c5cn[nH]c5)cc4O)cc3s2)C1 (centres unmarked) [Compound 350, 2-(6-{methyl[3-(methylamino)cyclobutyl]amino}[1,3]thiazolo[4,5-c]pyridazin-3-yl)-5-(1H-pyrazol-4-yl)phenol]	100 to 500
5-{2-[(1,5-dimethyl-8-azabicyclo[3.2.1]oct-3-yl)(methyl)amino][1,3]thiazolo[5,4-d]pyrimidin-5-yl)-2-methyl-2H-indazole-7-carbonitrile [Compound 254]	≤ 100
Cn1cc2cc(-c3cc(F)c4nc(C5CCNCC5)sc4c3)cc(F)c2n1 [Compound 126, 4-fluoro-6-(7-fluoro-2-methyl-2H-indazol-5-yl)-2-(piperidin-4-yl)-1,3-benzothiazole]	≤ 100
CN(C)[C@H]1C[C@@H](N(C)c2nc3nnc(-c4ccc(-c5cn[nH]c5)cc4O)cc3s2)C1 [Compound 364, 2-(6-{[(1s,3s)-3-(dimethylamino)cyclobutyl](methyl)amino}[1,3]thiazolo[4,5-c]pyridazin-3-yl)-5-(1H-pyrazol-4-yl)phenol]	1000 to 3000
Cc1cn2nc(-c3cc(F)c4nc(C5(C)CCNCC5)sc4c3)cc(C)c2n1 [Compound 210, 6-[4-fluoro-2-(4-methylpiperidin-4-yl)-1,3-benzothiazol-6-yl]-2,8-dimethylimidazo[1,2-b]pyridazine]	500 to 1000
CN(c1nc2c(F)cc(-c3cc(C#N)c4nn(C)cc4c3)cc2s1)C1CC(C)(C)NC(C)(C)C1 [Compound 91, 5-{4-fluoro-2-[methyl(2,2,6,6-tetramethylpiperidin-4-yl)amino]-1,3-benzothiazol-6-yl}-2-methyl-2H-indazole-7-carbonitrile]	≤ 100
